Test results reported in patent US8088567B2, “Human immortalised neural precursor cell line” (NsGene A/S, priority 2005, dated 2012).
Entries after “also recorded” stand apart in the source; their conditions may differ.

Legend:
[1] = tested on: NGC-407 wt cells; assay: Cell killing effect of AZT, XTT viability assay, parental cells; format: cell-based, human; conditions: parental NGC-407 cell line, 120 hours drug exposure
Method: Cell culture The human neuronal progenitor cell line NGC-407 was cultured in DMEM/F12 (Gibco #31331-028) conditioned with Human Serum Albunim (HSA) (Sigma #A 1653), N2 (Gibco #17502-048), B27 (Gibco #17504-044), Glucose (Sigma #G8769), bFGF (R&D Systems #233-FB), EGF (R& Systems #236-EG), MEM NEAA, x100 (Gibco #11140-035), HEPES (Gibco #15630-056), in poly-L-lysine (Sigma #P4832) coated flasks/Plates (CM-Lab, Denmark). Cells were grown at 37° C. and 5% CO2 in a humidified incubator.
(§1) Exponentially growing NGC-407 wt and tomato kinase (ZG561) expressing cells were plated at a density of 5.000 cells/well in poly-L-lysine coated 96-well plates in 100 μl conditioned medium and incubated 37° C. in a humidified incubator with a gas phase of 5% CO2. After 48 hours, medium was replaced with medium containing varying concentrations of AZT starting at 20 mM and down. […] The chemo resistance of cultured cells was monitored by the surviving cell fraction as a function of the drug concentration. Viability of cells was determined via the colorimetric XTT assay (XTT kit II-Roche, cat no. 1465015). […] The absorbance at 450 and 690 nm was determined using an ELISA plate reader (Ascent, ThermoLab). The IC50 value (50% inhibition concentration) of the investigated compound was calculated as the mean value of each experiment using SigmaPlot® (Dyrberg Trading, DK).

[2] = tested on: tomato kinase (ZG561) expressing NGC-407 cells; assay: Cell killing effect of AZT, XTT viability assay, tomato kinase expressing cells; format: cell-based, human
Method: The constructed pLHCXZ (Clontech) plasmid vector pZG561 (coding for a Tomato Thymidine kinase I with a C-terminal deletion of 26 amino acids, WO 03/100045) and pVPack-GP (Stratagene) plus pVPack-VSV-G (Stratagene) were transfected into the packaging cells using LipofectAMINE PLUS (Invitrogen-Life Technologies, Inc.) according to the protocol provided by the supplier. The medium from the transfected cells, cultured in DMEM (Invitrogen), was collected 48 and 72 hours post transfection, filtered through a 0.45 μm filter, pelleted by ultracentrifugation (50.000g, 90 min at 4° C.) and dissolved in DMEM (Invitrogen). The titer of the virus was determined by reverse transcriptase assay. […]
The day before transduction, 1×10^6 cells/well were seeded in 6-well plates. […] Subsequently cells were ready for experiments.
as §1, with “CO2.” for “CO2. After 48 hours, medium was replaced with medium containing varying concentrations of AZT starting at 20 mM and down.”, “The IC50 value (50% inhibition concentration) of the investigated compound was calculated as the mean value of each experiment using SigmaPlot® (Dyrberg Trading, DK).” left out

[3] = tested on: NGC-407 & U343MGa-cl 2:6 cells; assay: Gap junction communication by calcein dye transfer, NGC-407 to U343MGa-cl 2:6; format: cell-based, human; conditions: PB 0.5 mM donor, 4 mM recipient for 72 hours, 4 hours co-culture at 0.5 mM
Method: Donor human embryonic neural stem cells (NGC-407) and recipient human glioblastoma cells (U343MGa-cl 2:6) were grown each in 2 separate 35 mm Petri dishes (1×10^5/dish). For NGC-407 cells the plates were poly-L-lysine (Sigma) coated and the medium was DMEM/F12 1:1 with glutamax I (Invitrogen) containing 40 ng/ml bFGF2 (R&D Systems), 20 ng/ml rhEGF, 1× N2 supplement, 1× non-essential amino acid, 5 mM HEPES buffer solution (from Invitrogen), 0.5% human serum albumin and 6 g/L D-glucose (from Sigma). The recipient cells were grown in DMEM containing 10% FBS, 100 units/ml penicillin and 100 μg/ml streptomycin (from Invitrogen). When the cells were approx. 60% confluent, treatment with 0 & 0.5 mM 4-Phenyl Butyrate (PB) for donor cells and 0 & 4 mM PB for recipient cells was started and continued for 72 hours. The donor cells were then double labelled by incubating with 1 ml of cell medium containing 10 μM Dil and 5 μM Calcein-AM (Molecular Probes) for 20 min. After aspiration of the dye containing medium the cells were washed 4-5 times with pure medium and then with PBS to get rid of free dye. After a very brief trypsinization the cells were centrifuged and resuspended in co-culture medium (donor cell medium including 0.5% FBS). The medium of recipient cells was replaced by co-culture medium and 5×10^4 donor cells were added to one recipient plate. […]

[4] = tested on: NGC-407 cells; assay: Gap junction communication by fluorescent dye transfer between NGC-407 cells; format: cell-based, human; conditions: differentiating and proliferating conditions
Method: (§2) This was analyzed semi-quantitatively/qualitatively by using fluorescent dye transfer techniques. It is evident that the GJC is enhanced by 4-PB both under differentiating and proliferating conditions in vitro. This is relevant since the in vivo environment may present transplanted cells with conditions that stimulate neither differentiation nor proliferation.

[5] = tested on: NGC-407 cells and U87 gioblastoma cells; assay: Gap junction communication by fluorescent dye transfer, NGC-407 and U87; format: cell-based, human; conditions: differentiating and proliferating conditions
Method: as §2

[6] = tested on: U87MG xenograft tumor; assay: In vivo migration of GFP-expressing NGC-407 cells in nude rat model of human glioblastoma multiforme; design: species or system nude rats; conditions: PB 250 mg/kg intraperitoneally twice daily, 2 weeks
Method: 8-9 weeks old athymic nude male rats (rnu/rnu; Harlan, Germany) with an average weight of 200 g were used in our human glioblastoma multiforme xenograft model. They were housed in a group of 3 in standardized big cages in 50-70% relative humidity and 20°-24° C. temperature with 12/12 day/night variation. Food (Ad libitum), water and other materials used for these immunocompromised animals were autoclaved before use. Animals were anesthesitized by isoflurane inhalation and the head was fixed in a stereo tactic apparatus. Under microscopic guidance a burr hole of 1 mm diameter was made over the right hemisphere, 2 mm right lateral to the bregma. Using a Hamilton syringe of 5 μl volume 1.5×10^5 U87MG cells in 3 μl volume were slowly injected through the burr hole at a depth of 3.5 mm from the surface to reach the corpus callosum.
2×10^6 neural progenitors (NGC-407) recombinantly expressing green fluorescent protein (GFP), were plated in a 100 mm Petri dish and were grown as neurospheres for 48 hours. […]
Histopathological analysis of the sections was carried out by haematoxylin and eosin staining to determine the size and location of the implants. […] Immunohistochemically the tumor location was determined by correlating with the histological analysis and by the cell density while the sections were counter-stained with hoechst.

[7] = tested on: transfected cell line; conditions: cited from earlier work

Cc1cn([C@H]2C[C@H](N=[N+]=[N-])[C@@H](CO)O2)c(=O)[nH]c1=O [AZT]
IC50 [1]: 11.8 mM | IC50 ([2]; Hygromycin selected ZG561 (tomato TK) NGC-407 cells, 120 hours drug exposure, XTT): 0.051 mM | Sensitisation of NGC-407 cells towards AZT by Tomato Thymidine kinase ([2]; ZG561 cells versus parental cells): 230 fold

O=C(O)CCCc1ccccc1 [4-PB, 4-Phenyl Butyrate]
gap junction communication NGC-407 to U343MGa-cl 2:6 (calcein transfer) [3]: significantly enhanced | gap junction communication NGC-407 to U343MGa-cl 2:6 (calcein transfer) ([3]; listed as PB): number of green recipient cells has also been significantly increased | gap junction communication (GJC) between NGC-407 cells [4]: enhances the gap junction communication | gap junction communication (GJC) between NGC-407 cells and U87 gioblastoma cells [5]: enhances the gap junction communication | GFP staining / GFP positive cells around and inside the tumor [6]: enhanced the GFP staining; also recorded: increases the number of GFP positive cells

B1: B5: mutant Drosophila melanogaster deoxyribonucleoside kinase variant, SEQ ID NO 5 (protein)
chain: MAEAASCARKGTKYAEGTQPFTVLIEGNIGSGKTTYLNHFEKYKNDICLLTEPVEKWRNVNGVNLLELMYKDPKKWAMPFQSYATLTMLQSHTAPTNKKLKIMERSIFSARYCFVENMRRNGSLEQGMYNTLEEWYKFIEESIHVQADLIIYLRTSPEVAYERIRQRARSEESCVPLKYLQELHELHEDWLIHQRRPQSCKVLVLDADLDLENIGTEYQRSESSIFDAISSNQQPSPVPVSPSKRQRVAR
modifications: Drosophila melanogaster
degree of activation for gemcitabine relative to wild type Dm dNK [7]: approximately 50 times
